According to patent US8008488B2 (Abbott GmbH & Co. KG, priority 2003, dated 2011):
pKi: −log10 of the molar value.

How the values were obtained:
[1] = molecular target: T1, human dopamine D3 receptors (Homo sapiens, UniProt P35462); experiment: Dopamine D3 receptor binding, displacement of [125I]-iodosulpride; conditions: membranes from HEK-293 cells with stably expressed human D3 receptors, 0.1 nM [125I]-iodosulpride
T1 construct: expressed in transfected cells
Method: (§1) The substance to be tested was dissolved either in methanol/Chremophor® (BASF-AG) or in dimethyl sulfoxide and then diluted with water to the desired concentration.
(§2) Triplicate mixtures were carried out.
The incubation buffer contained 50 mM Tris, 120 mM NaCl, 5 mM KCl, 2 mM CaCl2, 2 mM MgCl2 and 0.1% bovine serum albumin, 10 μM quinolone, 0.1% ascorbic acid (prepared fresh each day). The buffer was adjusted to pH 7.4 with HCl.
(§3) Measurement and Evaluation:
(§4) After incubation at 25° C. for 60 minutes, the mixtures were filtered under vacuum through Whatman GF/B glass fiber filters using a cell harvester. The filters were transferred by a filter transfer system into scintillation vials. After addition of 4 ml of Ultima Gold® (Packard), the samples were shaken for one hour and then the radioactivity was calculated in a beta counter (Packard, Tricarb 2000 or 2200CA). The cp values were converted into dpm by means of a standard quench series with the aid of the instrument's own program.
(§5) Evaluation of the inhibition plots took place by iterative nonlinear regression analysis using the Statistical Analysis System (SAS) similar to the “LIGAND” program described by Munson and Rodbard.

[2] = molecular target: T2, human dopamine D2L receptors (long isoform) (Homo sapiens, UniProt P14416); experiment: Dopamine D2L receptor binding, displacement of [125I]-iodospiperone; conditions: *Ki(D2L)/Ki(D3), HEK-293 membranes, 0.01 nM [125I]-iodospiperone
T2 construct: expressed in transfected cells
T2 sequence (P14416 whole entry, canonical isoform): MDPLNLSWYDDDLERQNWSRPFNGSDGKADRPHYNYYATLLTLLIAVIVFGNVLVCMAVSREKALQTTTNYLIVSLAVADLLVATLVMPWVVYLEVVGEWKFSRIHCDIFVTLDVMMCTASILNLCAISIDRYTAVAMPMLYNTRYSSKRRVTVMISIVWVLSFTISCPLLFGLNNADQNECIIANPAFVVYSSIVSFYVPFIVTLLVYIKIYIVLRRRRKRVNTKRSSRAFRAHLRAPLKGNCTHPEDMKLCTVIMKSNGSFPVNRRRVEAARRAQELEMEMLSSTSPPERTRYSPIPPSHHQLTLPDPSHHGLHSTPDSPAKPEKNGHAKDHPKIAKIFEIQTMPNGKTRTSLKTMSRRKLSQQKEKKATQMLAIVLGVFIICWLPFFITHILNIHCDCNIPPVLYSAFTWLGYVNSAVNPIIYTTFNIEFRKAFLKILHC
Method: as §1, §2
The incubation buffer contained 50 mM Tris, 120 mM NaCl, 5 mM KCl, 2 mM CaCl2, 2 mM MgCl2 and 0.1% bovine serum albumin. The buffer was adjusted to pH 7.4 with HCl.
as §3, §4, §5

T1 sequence (P35462 whole entry): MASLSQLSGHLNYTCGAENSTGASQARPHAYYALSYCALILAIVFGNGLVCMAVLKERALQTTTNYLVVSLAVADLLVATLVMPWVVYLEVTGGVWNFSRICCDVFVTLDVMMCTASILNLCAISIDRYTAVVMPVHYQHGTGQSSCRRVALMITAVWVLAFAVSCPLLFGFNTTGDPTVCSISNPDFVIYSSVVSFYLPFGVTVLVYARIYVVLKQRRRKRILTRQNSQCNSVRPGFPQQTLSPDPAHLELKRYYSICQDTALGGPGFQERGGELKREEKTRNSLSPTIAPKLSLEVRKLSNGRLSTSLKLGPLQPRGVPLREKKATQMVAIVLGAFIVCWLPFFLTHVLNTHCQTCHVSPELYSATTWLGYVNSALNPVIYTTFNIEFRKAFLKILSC

| Structure (SMILES) | pKi [1] | Selectivity D3 vs. D2L* [2] |
| --- | --- | --- |
| CCCc1cc(N2CCN(CCCCn3ccc(C(C)(C)C)nc3=O)CC2)nc(C(C)(C)C)n1.Cl [Example 21, 1-[4-(4-tert-Butyl-2-oxopyrimidin-1 (2H)-yl)butyl]-4-(2-tert-butyl-6-propylpyrimidin-4-yl)piperazin-1-ium chloride] | 8.71 | 96 |
| Cc1cn(CCCCN2CCN(c3cc(C(F)(F)F)nc(C(C)(C)C)n3)CC2)c(=O)nc1-c1ccccc1 [Example 26, 1-(4-{4-[2-tert-Butyl-6-(trifluoromethyl)pyrimidin-4-yl]piperazin-1-yl}butyl)-5-methyl-4-phenylpyrimidin-2(1H)-one] | 8.09 | 55 |
| Cc1cc(N2CCN(CCCCn3cc(C)c(O)nc3=O)CC2)nc(C(C)(C)C)n1 [Example 29, 1-{4-[4-(2-tert-Butyl-6-methylpyrimidin-4-yl)piperazin-1-yl]butyl}-4-hydroxy-5-methylpyrimidin-2(1H)-one] | 8.12 | 67 |
| CCCc1cc(N2CCN(CCCCn3ccc(C)nc3=O)CC2)nc(C(C)(C)C)n1.Cl [Example 35, 4-(2-tert-Butyl-6-propylpyrimidin-4-yl)-1-[4-(4-methyl-2-oxopyrimidin-1 (2H)-yl)butyl]piperazin-1-ium chloride] | 8.30 | 116 |
| C/C(=C\CN1CCN(c2cc(C(F)(F)F)nc(C(C)(C)C)n2)CC1)Cn1cc(C)c(=O)[nH]c1=O [Example 36, 1-((2E)-4-{4-[2-tert-Butyl-6-(trifluoromethyl)pyrimidin-4-yl]piperazin-1-yl}-2-methylbut-2-en-1-yl)-5-methylpyrimidine-2,4(1H,3H)-dione] | 8.42 | 209 |
| Cc1cn(CC(C)CCN2CCN(c3cc(C(F)(F)F)nc(C(C)(C)C)n3)CC2)c(=O)[nH]c1=O (centres unmarked) [Example 37, 1-(4-{4-[2-tert-Butyl-6-(trifluoromethyl)pyrimidin-4-yl]piperazin-1-yl}-2-methylbutyl)-5-methylpyrimidine-2,4(1H,3H)-dione] | 8.49 | 126 |
| CCCc1cc(N2CCN(C(C)CCCn3cc(C)c(=O)[nH]c3=O)CC2)nc(C(C)(C)C)n1.Cl (centres unmarked) [Example 38, 4-(2-tert-Butyl-6-propylpyrimidin-4-yl)-1-[1-methyl-4-(5-methyl-2,4-dioxo-3,4-dihydropyrimidin-1 (2H)-yl)butyl]piperazin-1-ium chloride] | 8.27 | 103 |
| Cc1ccn(CCCCN2CCN(c3cc(C(C)C)nc(C(C)(C)C)n3)CC2)c(=O)n1.Cl [Example 39, 4-(2-tert-Butyl-6-isopropylpyrimidin-4-yl)-1-[4-(4-methyl-2-oxopyrimidin-1 (2H)-yl)butyl]piperazin-1-ium chloride] | 8.22 | 66 |
| Cc1cn(CCCCN2CCN(c3cc(C(C)C)nc(C(C)(C)C)n3)CC2)c(=O)[nH]c1=O.Cl [Example 40, 4-(2-tert-Butyl-6-isopropylpyrimidin-4-yl)-1-[4-(5-methyl-2,4-dioxo-3,4-dihydro-2H-pyrimidin-1-yl)-butyl]piperazin-1-ium chloride] | 8.67 | 67 |
| CCCc1cc(N2CCN(CCCCn3ccc(C(F)(F)F)nc3=O)CC2)nc(C(C)(C)C)n1 [Example 41, 1-{4-[4-(2-tert-Butyl-6-propylpyrimidin-4-yl)piperazin-1-yl]butyl}-4-trifluoromethyl-1H-pyrimidin-2-one] | 8.24 | 62 |
| CC(C)(C)c1nc(N2CCN(CCCCn3ccc(-c4ccc(F)cc4)nc3=O)CC2)cc(C(F)(F)F)n1.Cl [Example 45, 4-(2-tert-Butyl-6-trifluoromethylpyrimidin-4-yl)-1-{4-[4-(4-fluorophenyl)-2-oxo-2H-pyrimidin-1-yl]butyl}piperazin-1-ium chloride] | 8.30 | 37 |
| C/C(=C\CN1CCN(c2cc(C(F)(F)F)nc(C(C)(C)C)n2)CC1)Cn1ccc(=O)[nH]c1=O [Example 46, 1-(2E)-{4-[4-(2-tert-Butyl-6-trifluoromethylpyrimidin-4-yl)piperazin-1-yl]-2-methylbut-2-enyl}-1H-pyrimidine-2,4-dione] | 8.27 | 43 |
| CCCc1cc(N2CCN(CCCCn3cc(C#N)c(=O)[nH]c3=O)CC2)nc(C(C)(C)C)n1 [Example 47, 1-{4-[4-(2-tert-Butyl-6-propylpyrimidin-4-yl)piperazin-1-yl]butyl}-2,4-dioxo-1,2,3,4-tetrahydropyrimidine-5-carbonitrile] | 8.31 | 51 |
| CC(C)(C)c1nc(N2CCN(CCCCn3cc(Cl)c(=O)[nH]c3=O)CC2)cc(C(F)(F)F)n1 [Example 52, 1-{4-[4-(2-tert-Butyl-6-trifluoromethylpyrimidin-4-yl)piperazin-1-yl]butyl}-5-chloro-1H-pyrimidine-2,4-dione] | 8.64 | 97 |
| CCCc1cc(N2CCN(CCCCn3cc(F)c(=O)[nH]c3=O)CC2)nc(C(C)(C)C)n1 [Example 53, 1-{4-[4-(2-tert-Butyl-6-propylpyrimidin-4-yl)piperazin-1-yl]butyl}-5-fluoro-1H-pyrimidine-2,4-dione] | 8.63 | 56 |

Now those with a higher pKi [1], led by results:

| pKi [1] | Selectivity D3 vs. D2L* [2] | Structure (SMILES) |
| --- | --- | --- |
| 8.73 | 108 | CCCc1cc(N2CCN(CCCCn3ccc(O)nc3=O)CC2)nc(C(C)(C)C)n1 [Example 20, 1-{4-[4-(2-tert-Butyl-6-propylpyrimidin-4-yl)piperazin-1-yl]butyl}-4-hydroxypyrimidin-2(1H)-one] |
| 8.94 | 77 | Cc1cn(CCCCN2CCN(c3cc(C4CCC4)nc(C(C)(C)C)n3)CC2)c(=O)nc1O [Example 22, 1-{4-[4-(2-tert-Butyl-6-cyclobutylpyrimidin-4-yl)piperazin-1-yl]butyl}-4-hydroxy-5-methylpyrimidin-2(1H)-one] |
| 8.82 | 63 | CC(C)(C)c1nc(C2CCC2)cc(N2CCN(CCCCn3ccc(=O)[nH]c3=O)CC2)n1 [Example 23, 1-{4-[4-(2-tert-Butyl-6-cyclobutylpyrimidin-4-yl)piperazin-1-yl]butyl}pyrimidine-2,4(1H,3H)-dione] |
| 9.15 | 42 | CC(C)(C)c1cc(N2CCN(CCCCn3ccc(=O)[nH]c3=O)CC2)nc(C(C)(C)C)n1 [Example 33, 1-{4-[4-(2,6-di-tert-Butylpyrimidin-4-yl)piperazin-1-yl]butyl}pyrimidine-2,4(1H,3H)-dione] |
| 9.20 | 158 | CCCc1cc(N2CCN(CCCCn3ccc(-c4ccc(F)cc4)nc3=O)CC2)nc(C(C)(C)C)n1 [Example 44, 1-{4-[4-(2-tert-Butyl-6-propylpyrimidin-4-yl)piperazin-1-yl]butyl}-4-(4-fluorophenyl)-1H-pyrimidin-2-one] |
| 9.27 | 86 | CCCc1cc(N2CCN(CCCCn3ccc(-c4ccccc4)nc3=O)CC2)nc(C(C)(C)C)n1 [Example 49, 1-{4-[4-(2-tert-Butyl-6-propylpyrimidin-4-yl)piperazin-1-yl]butyl}-4-phenyl-1H-pyrimidin-2-one] |
| 9.14 | 77 | CCCc1cc(N2CCN(CCCCn3ccc(-c4ccco4)nc3=O)CC2)nc(C(C)(C)C)n1 [Example 50, 1-{4-[4-(2-tert-Butyl-6-propylpyrimidin-4-yl)piperazin-1-yl]butyl}-4-furan-2-yl-1H-pyrimidin-2-one] |
